Laboratory results reported in patent US20230330060A1, “COMPOUNDS FOR TREATMENT OF HEART FAILURE” (Sulfateq B.V., priority 2020, published 2023).

Legend:
[1] = test system: doxorubicin-induced heart failure; assay: Cardiac function assessment by PV-loop analysis in rats with doxorubicin-induced heart failure; type: in vivo, rat; settings: for ESP (End-systolic pressure): doxorubicin 2 mg/kg weekly i.p. x9, mean±S.D.; for ESP (End-systolic pressure) / Contractility efficiency / EDP (end-diastolic pressure) / EDV (end-diastolic volume) / ESV (end-systolic volume) / Ea (Arterial elastance) / Ees (ESPVR) end-systolic elastance / Emax (EDPVR) maximal elastance / PRSW (preload recruitable stroke work) / SV (stroke volume) / Tau (time constant of LV pressure decay) / dP/dTmax / dP/dTmin: 12 weeks; for Contractility efficiency / EDP (end-diastolic pressure) / EDV (end-diastolic volume) / ESV (end-systolic volume) / Ea (Arterial elastance) / Ees (ESPVR) end-systolic elastance / Emax (EDPVR) maximal elastance / PRSW (preload recruitable stroke work) / SV (stroke volume) / Tau (time constant of LV pressure decay) / dP/dTmax / dP/dTmin / Cardiac function (heart rate, ejection fraction, stroke work, cardiac output), FIG. 1: doxorubicin rats; for Contractility efficiency / EDP (end-diastolic pressure) / EDV (end-diastolic volume) / ESV (end-systolic volume) / Ea (Arterial elastance) / Ees (ESPVR) end-systolic elastance / Emax (EDPVR) maximal elastance / PRSW (preload recruitable stroke work) / SV (stroke volume) / Tau (time constant of LV pressure decay) / dP/dTmax / dP/dTmin: SUL-150 diet; for Cardiac function (heart rate, ejection fraction, stroke work, cardiac output), FIG. 1: p<0.05 vs doxorubicin group
Description: The effectiveness of the compounds according to the invention for treatment or prophylaxis of HFrEF was tested in vivo in rats. Doxorubicin, an anthracycline antibiotic used in cancer chemotherapy, was employed to induce heart failure with reduced ejection fraction in preclinical rat models (Christiansen et al. (2006) Eur. J. Cardiothorac. Surg. 30:611-616; Ertunc et al. (2009) Pharmacology 84:240-248; Hayward et al. (2007) J. Am. Ass. Lab. Animal Sci. 46:20-32). […] The SUL-150 solution was sprayed homogeneously over standard food pellets (1.25 kg). […] Food pellets were freshly prepared weekly. With the approximation of 200 mg/kg SUL-150 in the food pellets and a daily dietary intake of 25 gram for a 350 gram rat, daily dosing of SUL-150 approximates 5 mg per day. Male outbred Wistar rats of 250-300 grams (10-12 weeks old) were kept on a 12h light/dark cycle and received a standard diet with distilled water ad libitum. Thirty rats were administered with doxorubicin (2 mg/kg) weekly via intraperitoneal injection for 9 consecutive weeks and were left either untreated (standard chow diet, 10 rats), or received a diet supplemented with SUL-150 as prophylaxis (prior to the 1st doxorubicin administration, 10 rats) or therapy (starting after the 6th doxorubicin administration, 10 rats). Sham control rats (8 rats) were administered with saline weekly via intraperitoneal injection for 9 consecutive weeks and received a standard diet. All rats were subjected to cardiac function assessment 12 weeks after the first doxorubicin administration. Cardiac function tests (PV-Loop assessment) were performed under anaesthesia (isoflurane in O2 (FiO2 100%)) followed by orotracheal intubation. The rats were placed in a mechanical rodent ventilator (Harvard Apparatus, Holliston, Massachusetts) with tidal volume of 10 mL/kg and 70 breaths per minute. A small window was opened below the sternum and with a small incision a 2F microtip pressure-conductance catheter (SPR-838; Millar Instruments, Houston, Tx) was inserted directly on the left ventricle (LV) through the apex. After stabilization, signals were recorded with a pressure-volume conductance System ([…]-Ultra, Millar Instruments, Houston, Tx) connected to a data acquisition system (PowerLab, AD Instruments, Colorado Springs, Co). […] Volume calibration was performed with fresh heparinized warm blood from each animal. Also, […] of 7.5% hypertonic saline was injected at the end of each experiment for the parallel conductance volume calibration. Data is analysed in GraphPad Prism 8.0 (GraphPad Software Inc, Ca). All results are expressed as mean±S.D. (standard deviation) or median and interquartile interval. The difference between groups was assessed by ANOVA followed by pairwise comparisons to the sham and vehicle treatment groups with p-values adjusted for multiple comparisons using FDR correction.

[2] = test system: doxorubicin-induced heart failure; assay: Cardiac mitochondrial (mtDNA) copy number; type: in vivo, rat; settings: doxorubicin rats; administration of SUL-150
Description: SUL-150 (250 mg) was dissolved in 100% EtOH (1.02 ml) and further diluted in distilled water (68.7 ml) to obtain a clear 10 mM solution. The SUL-150 solution was sprayed homogeneously over standard food pellets (1.25 kg). Food pellets were air-dried overnight. Food pellets were freshly prepared weekly. With the approximation of 200 mg·kg^−1 SUL-150 in the food pellets and a daily dietary intake of 25 gram for a 350 gram rat, daily dosing of SUL-150 approximates 5 mg·day^−1.
Male outbred Wistar rats of 250-300 grams (10-12 weeks old) were kept on a 12 h light/dark cycle and received a standard diet with distilled water ad libitum. Thirty rats were administered with doxorubicin (2 mg·kg^−1) weekly via intraperitoneal injection for 9 consecutive weeks and were left either untreated (standard chow diet, 10 rats), or received a diet supplemented with SUL-150 as prophylaxis (prior to the 1st doxorubicin administration, 10 rats) or therapy (starting after the 6th doxorubicin administration, 10 rats). Sham control rats (8 rats) were administered with saline weekly via intraperitoneal injection for 9 consecutive weeks and received a standard diet. […]
Cardiac tissue samples were homogenized in lysis buffer (100 mM NaCl, 10 mM EDTA, 0.5% SDS in 20 mM Tris-HCl, pH 7.4) containing 50 U·ml^−1 RNase I and 100 U·ml^−1 proteinase K (both ThermoFisher, Walthham, MA). […] MtDNA copy number was calculated as: […]

[3] = therapeutic (after 6th doxorubicin)

Cc1c(C)c2c(c(C)c1O)CC[C@](C)(C(=O)N1CCNCC1)O2 [SUL-150, (R)-(6-hydroxy-2,5,7,8-tetramethylchroman-2-yl)(piperazin-1-yl)methanone] was tested, and the “ESP (End-systolic pressure)” value ([1]; SUL-150 in diet (approx. 5 mg per day) as prophylaxis, prior to 1st doxorubicin) was 104.4 ± 12.3 mmHg, the “ESP (End-systolic pressure)” value ([1]; SUL-150 in diet (approx. 5 mg per day) as therapy, after 6th doxorubicin) was 114.3 ± 18.4 mmHg and the Contractility efficiency ([1]; prophylaxis) was 53.0 ± 16.4 %. For the same compound, the “EDP (end-diastolic pressure)” value ([1]; prophylaxis) was 8.1 ± 3.0 mmHg, the “EDV (end-diastolic volume)” value ([1]; prophylaxis) was 325.0 ± 144^ μl and the “ESV (end-systolic volume)” value ([1]; prophylaxis) was 175.3 ± 107^ μl. For the same compound, the “Ea (Arterial elastance)” value ([1]; prophylaxis) was 0.7 ± 0.2 mmHg · μl−1, the “Ees (ESPVR) end-systolic elastance” value ([1]; prophylaxis) was 0.7 ± 0.6 mmHg · μl−1 and the “Emax (EDPVR) maximal elastance” value ([1]; prophylaxis) was 0.04 ± 0.03 mmHg · μl−1. For the same compound, the “PRSW (preload recruitable stroke work)” value ([1]; prophylaxis) was 9.9 ± 4.0 mmHg · ml−1, the “SV (stroke volume)” value ([1]; prophylaxis) was 149.7 ± 55.† μl and the “Tau (time constant of LV pressure decay)” value ([1]; prophylaxis) was 12.5 ± 3.1. For the same compound, the dP/dTmax ([1]; prophylaxis) was 6144 ± 1782 mmHg · s−1, the dP/dTmin ([1]; prophylaxis) was −5006 ± 1140 mmHg · s−1 and the Contractility efficiency [1, 3] was 47.1 ± 18.1 %. For the same compound, the “EDP (end-diastolic pressure)” value [1, 3] was 7.4 ± 3.7 mmHg, the “EDV (end-diastolic volume)” value [1, 3] was 363.1 ± 115^ μl and the “ESV (end-systolic volume)” value [1, 3] was 205.0 ± 96.4 µL. The “Ea (Arterial elastance)” value [1, 3] was 0.7 ± 0.2 mmHg · μl−1, the “Ees (ESPVR) end-systolic elastance” value [1, 3] was 0.5 ± 0.4 mmHg · μl−1 and the “Emax (EDPVR) maximal elastance” value [1, 3] was 0.03 ± 0.02 mmHg · μl−1. For the same compound, the “PRSW (preload recruitable stroke work)” value [1, 3] was 11.0 ± 3.9 mmHg · ml−1, the “SV (stroke volume)” value [1, 3] was 158.1 ± 55.† μl and the “Tau (time constant of LV pressure decay)” value [1, 3] was 13.6 ± 5.2. For the same compound, the dP/dTmax [1, 3] was 6487 ± 1665 mmHg · s−1, the dP/dTmin [1, 3] was −5092 ± 1447 mmHg · s−1 and the “Cardiac function (heart rate, ejection fraction, stroke work, cardiac output), FIG. 1” value ([1]; SUL-150 via food pellets after 6 cumulative doxorubicin administrations (therapeutic group)) was “substantially improves the cardiac function”. The “Cardiac function (heart rate, ejection fraction, stroke work, cardiac output), FIG. 1” value ([1]; SUL-150 via food pellets prior to doxorubicin (prophylaxis group)) was “substantially preserves cardiac function and largely maintains ejection fraction and cardiac output” and the “Doxorubicin-induced reduction of cardiac mtDNA copy number, FIG. 6B” value [2] was “precluded”.
